Patent US20250011314A1, “MICROBIOCIDAL PYRAZOLE DERIVATIVES” (SYNGENTA CROP PROTECTION AG, priority 2021, published 2025)

Assays:
[1] = system: Glomerella lagenarium (Colletotrichum lagenarium); assay: Glomerella lagenarium (Colletotrichum lagenarium) / liquid culture (anthracnose); type: cell-based; conditions: Colletotrichum orbiculare, liquid culture (PDB), 24° C., growth inhibition photometrically 3-4 days after application, read-out: control of Glomerella lagenarium compared to untreated control
Procedure: (§1) Example B-3: Glomerella lagenarium (Colletotrichum lagenarium)/Liquid Culture (Anthracnose) Conidia of the fungus from cryogenic storage are directly mixed into nutrient broth (PDB potato dextrose broth). After placing a (DMSO) solution of test compound into a microtiter plate (96-well format), the nutrient broth containing the fungal spores is added. The test plates are incubated at 24° C. and the inhibition of growth is measured photometrically 3-4 days after application.

[2] = system: Monographella nivalis (Microdochium nivale); assay: Monographella nivalis (Microdochium nivale) / liquid culture (foot rot cereals); type: cell-based; conditions: liquid culture (PDB), 24° C., growth inhibition photometrically 4-5 days after application, read-out: control of Monographella nivalis compared to untreated control
Procedure: as §1, with “B-7: Monographella Nivalis (Microdochium nivale)/Liquid” for “B-3: Glomerella lagenarium (Colletotrichum lagenarium)/Liquid”, “(Foot Rot Cereals)” for “(Anthracnose)”, “determined” for “measured”, “4-5” for “3-4”

[3] = system: Mycosphaerella graminicola (Septoria tritici); assay: Mycosphaerella graminicola (Septoria tritici) / liquid culture (Septoria blotch); type: cell-based; conditions: Zymoseptoria tritici, liquid culture (PDB), 24° C., growth inhibition photometrically 4-5 days after application, read-out: control of Mycosphaerella graminicola compared to untreated control
Procedure: as §1, with “B-12: Mycosphaerella graminicola (Septoria tritici)/Liquid” for “B-3: Glomerella lagenarium (Colletotrichum lagenarium)/Liquid”, “(Septoria Blotch)” for “(Anthracnose)”, “determined” for “measured”, “4-5” for “3-4”

[4] = system: Magnaporthe grisea (Pyricularia oryzae); type: in vivo; conditions: 200 ppm; rice leaf segments cv. Ballila; inoculated 2 days after application; assessed 5-7 days after application

## Cn1cc(C(C)(CNC(=O)c2cc(-c3ccc(F)cc3F)on2)c2nc(Cl)cs2)cn1 (racemic) [Compound P-4, N-[2-(4-chlorothiazol-2-yl)-2-(1-methylpyrazol-4-yl)propyl]-5-(2,4-difluorophenyl)isoxazole-3-carboxamide]
[1]
  inhibition of growth at 20 ppm: ≥ 80%
[2]
  inhibition of growth at 20 ppm: ≥ 80%
[3]
  inhibition of growth at 20 ppm: ≥ 80%

## Cn1cc(C(C)(CNC(=O)c2cc(-c3ccc(F)cc3F)on2)c2nc(Cl)cs2)cn1 (single isomer, unassigned) [Compound P-5, N-[2-(4-chlorothiazol-2-yl)-2-(1-methylpyrazol-4-yl)propyl]-5-(2,4-difluorophenyl) isoxazole-3-carboxamide]
[1]
  inhibition of growth at 20 ppm: ≥ 80%
[2]
  inhibition of growth at 20 ppm: ≥ 80%
[3]
  inhibition of growth at 20 ppm: ≥ 80%

## Cn1cc(C(C)(CNC(=O)c2cc(-c3ccc(F)cc3F)on2)c2ccn(C)n2)cn1 (stereo not shown) [Compound P-1, 5-(2,4-difluorophenyl)-N-[2-(1-methylpyrazol-3-yl)-2-(1-methylpyrazol-4-yl)propyl]isoxazole-3-carboxamide]
[1]
  inhibition of growth at 20 ppm: ≥ 80%
[2]
  inhibition of growth at 20 ppm: ≥ 80%
[4]
  control of Magnaporthe grisea compared to untreated control: at least 80%
[3]
  inhibition of growth at 20 ppm: ≥ 80%

## Cn1cc(C(C)(CNC(=O)c2cc(-c3ccc(F)cc3F)on2)c2nccs2)cn1 (stereo not shown) [Compound P-2, 5-(2,4-difluorophenyl)-N-[2-(1-methylpyrazol-4-yl)-2-thiazol-2-yl-propyl]isoxazole-3-carboxamide]
[1]
  inhibition of growth at 20 ppm: ≥ 80%
[2]
  inhibition of growth at 20 ppm: ≥ 80%
[3]
  inhibition of growth at 20 ppm: ≥ 80%

## Cn1cc(C(C)(CNC(=O)c2cc(-c3ccc(F)cc3F)on2)c2nc(Cl)c(Cl)s2)cn1 (stereo not shown) [Compound P-3, N-[2-(4,5-dichlorothiazol-2-yl)-2-(1-methylpyrazol-4-yl)propyl]-5-(2,4-difluorophenyl)isoxazole-3-carboxamide]
[1]
  inhibition of growth at 20 ppm: ≥ 80%
[2]
  inhibition of growth at 20 ppm: ≥ 80%
[3]
  inhibition of growth at 20 ppm: ≥ 80%

## Cn1cc(C(C)(CNC(=O)c2cc(-c3ccc(F)cc3F)on2)c2ncc(Br)s2)cn1 (stereo not shown) [Compound P-7, N-[2-(5-bromothiazol-2-yl)-2-(1-methylpyrazol-4-yl)propyl]-5-(2,4-difluorophenyl) isoxazole-3-carboxamide]
[1]
  inhibition of growth at 20 ppm: ≥ 80%
[2]
  inhibition of growth at 20 ppm: ≥ 80%
[3]
  inhibition of growth at 20 ppm: ≥ 80%

## Cn1cc(C(C)(CNC(=O)c2cc(-c3ccc(F)cc3F)on2)c2nc(Br)cs2)cn1 (stereo not shown) [Compound P-8, N-[2-(4-bromothiazol-2-yl)-2-(1-methylpyrazol-4-yl)propyl]-5-(2,4-difluorophenyl) isoxazole-3-carboxamide]
[1]
  inhibition of growth at 20 ppm: ≥ 80%
[2]
  inhibition of growth at 20 ppm: ≥ 80%
[3]
  inhibition of growth at 20 ppm: ≥ 80%

## Cn1cc(C(C)(CNC(=O)c2cc(-c3ccc(F)cc3F)on2)c2nc(C(F)(F)F)cs2)cn1 (stereo not shown) [Compound P-9, 5-(2,4-difluorophenyl)-N-[2-(1-methylpyrazol-4-yl)-2-[4-(trifluoromethyl)thiazol-2-yl]propyl]isoxazole-3-carboxamide]
[1]
  inhibition of growth at 20 ppm: ≥ 80%
[2]
  inhibition of growth at 20 ppm: ≥ 80%
[3]
  inhibition of growth at 20 ppm: ≥ 80%

## Cn1cc(C(C)(CNC(=O)c2cc(-c3ccc(F)cc3F)on2)c2csc(Br)n2)cn1 (stereo not shown) [Compound P-10, N-[2-(2-bromothiazol-4-yl)-2-(1-methylpyrazol-4-yl)propyl]-5-(2,4-difluorophenyl) isoxazole-3-carboxamide]
[1]
  inhibition of growth at 20 ppm: ≥ 80%
[2]
  inhibition of growth at 20 ppm: ≥ 80%
[3]
  inhibition of growth at 20 ppm: ≥ 80%

## Cn1cc(C(C)(CNC(=O)c2cc(-c3ccc(F)cc3F)on2)c2nc(C3CC3)cs2)cn1 (stereo not shown) [Compound P-11, N-[2-(4-cyclopropylthiazol-2-yl)-2-(1-methylpyrazol-4-yl)propyl]-5-(2,4-difluorophenyl) isoxazole-3-carboxamide]
[1]
  inhibition of growth at 20 ppm: ≥ 80%
[2]
  inhibition of growth at 20 ppm: ≥ 80%
[3]
  inhibition of growth at 20 ppm: ≥ 80%
